Results as given in ChEMBL document CHEMBL2440076, “New triarylpyrazoles as broad-spectrum anticancer agents: design, synthesis, and biological evaluation” (Eur J Med Chem, 2013).

Columns and labels:
Format in all cases: functional
Malme-3M = experiment: Growth inhibition of human MALME-3M cells assessed as cell growth at 3X10'-9 M after 48 hrs by sulforhodamine B assay; conditions: read-out: Activity
MOLT-4 = experiment: Growth inhibition of human MOLT4 cells assessed as cell growth at 3X10'-9 M after 48 hrs by sulforhodamine B assay; conditions: MOLT-4, 48 h, read-out: Activity
HOP-62 = experiment: Growth inhibition of human HOP62 cells assessed as cell growth at 3X10'-7 M after 48 hrs by sulforhodamine B assay; conditions: HOP-62, 48 h, read-out: Activity
NCI-H522 = experiment: Growth inhibition of human NCI-H522 cells assessed as cell growth at 3X10'-6 M after 48 hrs by sulforhodamine B assay; conditions: NCI-H522, 48 h, read-out: Activity
SK-MEL-2 = experiment: Growth inhibition of human SK-MEL-2 cells assessed as cell growth at 3X10'-9 M after 48 hrs by sulforhodamine B assay; conditions: SK-MEL-2, 48 h, read-out: Activity
MDA-MB-468 [1] = experiment: Growth inhibition of human MDA-MB-468 cells assessed as cell growth at 3X10'-9 M after 48 hrs by sulforhodamine B assay; conditions: MDA-MB-468, 48 h, read-out: Activity
SW-620 = experiment: Growth inhibition of human SW620 cells assessed as cell growth at 3X10'-5 M after 48 hrs by sulforhodamine B assay; conditions: SW-620, 48 h, read-out: Activity
LOX IMVI [2] = experiment: Growth inhibition of human LOXIMVI cells assessed as cell growth at 3X10'-5 M after 48 hrs by sulforhodamine B assay; conditions: read-out: Activity
HCT-15 = experiment: Growth inhibition of human HCT15 cells assessed as cell growth at 3X10'-7 M after 48 hrs by sulforhodamine B assay; conditions: HCT-15, 48 h, read-out: Activity
HT-29 = experiment: Growth inhibition of human HT-29 cells assessed as cell growth at 3X10'-5 M after 48 hrs by sulforhodamine B assay; conditions: HT-29, 48 h, read-out: Activity
SNB-19 = experiment: Growth inhibition of human SNB19 cells assessed as cell growth at 3X10'-5 M after 48 hrs by sulforhodamine B assay; conditions: SNB-19, 48 h, read-out: Activity
RPMI-8226 = experiment: Growth inhibition of human RPMI8226 cells assessed as cell growth at 3X10'-7 M after 48 hrs by sulforhodamine B assay; conditions: RPMI-8226, 48 h, read-out: Activity
SK-MEL-5 = experiment: Growth inhibition of human SK-MEL-5 cells assessed as cell growth at 3X10'-6 M after 48 hrs by sulforhodamine B assay; conditions: SK-MEL-5, 48 h, read-out: Activity
NCI-H23 = experiment: Growth inhibition of human NCI-H23 cells assessed as cell growth at 3X10'-6 M after 48 hrs by sulforhodamine B assay; conditions: NCI-H23, 48 h, read-out: Activity
SN12C [3] = experiment: Growth inhibition of human SN12C cells assessed as cell growth at 3X10'-9 M after 48 hrs by sulforhodamine B assay; conditions: read-out: Activity
CAKI-1 = experiment: Growth inhibition of human CAKI-1 cells assessed as cell growth at 3X10'-6 M after 48 hrs by sulforhodamine B assay; conditions: CAKI-1, 48 h, read-out: Activity
T47D = experiment: Growth inhibition of human T47D cells assessed as cell growth at 3X10'-7 M after 48 hrs by sulforhodamine B assay; conditions: read-out: Activity
A549 = experiment: Growth inhibition of human A549/ATCC cells assessed as cell growth at 3X10'-7 M after 48 hrs by sulforhodamine B assay; conditions: A549, 48 h, read-out: Activity
SN12C [4] = experiment: Growth inhibition of human SN12C cells assessed as cell growth at 3X10'-5 M after 48 hrs by sulforhodamine B assay; conditions: read-out: Activity
[5] = Growth inhibition of human Hs 578T cells assessed as cell growth at 3X10'-5 M after 48 hrs by sulforhodamine B assay; conditions: read-out: Activity
MDA-MB-468 [6] = experiment: Growth inhibition of human MDA-MB-468 cells assessed as cell growth at 3X10'-5 M after 48 hrs by sulforhodamine B assay; conditions: MDA-MB-468, 48 h, read-out: Activity
IGROV-1 [7] = experiment: Growth inhibition of human IGROV1 cells assessed as cell growth at 3X10'-7 M after 48 hrs by sulforhodamine B assay; conditions: IGROV-1, 48 h, read-out: Activity
UACC-62 [8] = experiment: Growth inhibition of human UACC62 cells assessed as cell growth at 3X10'-5 M after 48 hrs by sulforhodamine B assay; conditions: UACC-62, 48 h, read-out: Activity
NCI-H322M = experiment: Growth inhibition of human NCI-H322M cells assessed as cell growth at 3X10'-8 M after 48 hrs by sulforhodamine B assay; conditions: read-out: Activity
UACC-62 [9] = experiment: Growth inhibition of human UACC62 cells assessed as cell growth at 3X10'-9 M after 48 hrs by sulforhodamine B assay; conditions: UACC-62, 48 h, read-out: Activity
OVCAR-4 = experiment: Growth inhibition of human OVCAR4 cells assessed as cell growth at 3X10'-8 M after 48 hrs by sulforhodamine B assay; conditions: OVCAR-4, 48 h, read-out: Activity
CCRF-CEM [10] = experiment: Growth inhibition of human CCRF-CEM cells assessed as cell growth at 3X10'-7 M after 48 hrs by sulforhodamine B assay; conditions: read-out: Activity
CCRF-CEM [11] = experiment: Growth inhibition of human CCRF-CEM cells assessed as cell growth at 3X10'-6 M after 48 hrs by sulforhodamine B assay; conditions: read-out: Activity
A498 = experiment: Growth inhibition of human A498 cells assessed as cell growth at 3X10'-5 M after 48 hrs by sulforhodamine B assay; conditions: A498, 48 h, read-out: Activity
LOX IMVI [12] = experiment: Growth inhibition of human LOXIMVI cells assessed as cell growth at 3X10'-9 M after 48 hrs by sulforhodamine B assay; conditions: read-out: Activity
[13] = Growth inhibition of human Hs 578T cells assessed as cell growth at 3X10'-7 M after 48 hrs by sulforhodamine B assay; conditions: read-out: Activity
IGROV-1 [14] = experiment: Growth inhibition of human IGROV1 cells assessed as cell growth at 3X10'-9 M after 48 hrs by sulforhodamine B assay; conditions: IGROV-1, 48 h, read-out: Activity
SF-295 [15] = experiment: Growth inhibition of human SF295 cells assessed as cell growth at 3X10'-7 M after 48 hrs by sulforhodamine B assay; conditions: SF-295, 48 h, read-out: Activity
TK-10 = experiment: Growth inhibition of human TK10 cells assessed as cell growth at 3X10'-5 M after 48 hrs by sulforhodamine B assay; conditions: TK-10, 48 h, read-out: Activity
SF-295 [16] = experiment: Growth inhibition of human SF295 cells assessed as cell growth at 3X10'-9 M after 48 hrs by sulforhodamine B assay; conditions: SF-295, 48 h, read-out: Activity
SF-295 [17] = experiment: Growth inhibition of human SF295 cells assessed as cell growth at 3X10'-5 M after 48 hrs by sulforhodamine B assay; conditions: SF-295, 48 h, read-out: Activity
HL-60(TB) = experiment: Growth inhibition of human HL-60(TB) cells assessed as cell growth at 3X10'-7 M after 48 hrs by sulforhodamine B assay; conditions: HL-60, 48 h, read-out: Activity

SMILES | growth at 0.003 µM (Malme-3M) [%] | growth at 0.003 µM (MOLT-4) [%] | growth at 0.3 µM (HOP-62) [%] | growth at 3 µM (NCI-H522) [%] | growth at 0.003 µM (SK-MEL-2) [%] | growth at 0.003 µM (MDA-MB-468 [1]) [%] | growth at 30 µM (SW-620) [%] | growth at 30 µM (LOX IMVI [2]) [%] | growth at 0.3 µM (HCT-15) [%] | growth at 30 µM (HT-29) [%] | growth at 30 µM (SNB-19) [%] | growth at 0.3 µM (RPMI-8226) [%] | growth at 3 µM (SK-MEL-5) [%] | growth at 3 µM (NCI-H23) [%] | growth at 0.003 µM (SN12C [3]) [%] | growth at 3 µM (CAKI-1) [%] | growth at 0.3 µM (T47D) [%] | growth at 0.3 µM (A549) [%] | growth at 30 µM (SN12C [4]) [%] | growth at 30 µM [5] [%] | also measured
O=C(Nc1cccc(-n2cc(-c3ccncc3)c(-c3ccc(Cl)c(O)c3)n2)c1)Nc1ccc(Cl)c(Cl)c1 | 92 | 98 | 111 | 14 | 98 | 90 | 1 | -77 | 99 | 3 | 18 | 90 | -73 | 11 | 93 | 17 | 100 | 85 | 3 | -21 | growth at 30 µM (MDA-MB-468 [6]): -18%; growth at 0.3 µM (IGROV-1 [7]): 107%; growth at 30 µM (UACC-62 [8]): -53%; growth at 0.03 µM (NCI-H322M): 100%; growth at 0.003 µM (UACC-62 [9]): 99%; growth at 0.03 µM (OVCAR-4): 102%; growth at 0.3 µM (CCRF-CEM [10]): 90%; growth at 3 µM (CCRF-CEM [11]): 10%; growth at 30 µM (A498): -26%; growth at 0.003 µM (LOX IMVI [12]): 96%; growth at 0.3 µM [13]: 82%; growth at 0.003 µM (IGROV-1 [14]): 103%
O=C(Nc1cccc(-n2cc(-c3ccncc3)c(-c3ccc(Cl)c(O)c3)n2)c1)Nc1cccc(C(F)(F)F)c1 | 96 | 97 | 105 | 25 | 93 | 95 | 8 | -50 | 96 | 1 | 20 | 90 | 17 | 36 | 98 | 35 | 97 | 93 | 16 | 11 | growth at 0.3 µM (SF-295 [15]): 88%; growth at 30 µM (TK-10): 7%; growth at 30 µM (MDA-MB-468 [6]): -27%; growth at 0.003 µM (SF-295 [16]): 94%; growth at 0.3 µM (IGROV-1 [7]): 100%; growth at 30 µM (UACC-62 [8]): -67%; growth at 0.03 µM (NCI-H322M): 95%; growth at 0.003 µM (UACC-62 [9]): 98%; growth at 30 µM (SF-295 [17]): -53%; growth at 0.03 µM (OVCAR-4): 107%; growth at 0.3 µM (CCRF-CEM [10]): 94%; growth at 3 µM (CCRF-CEM [11]): 25%; growth at 30 µM (A498): 15%; growth at 0.003 µM (LOX IMVI [12]): 97%; growth at 0.3 µM [13]: 89%; growth at 0.003 µM (IGROV-1 [14]): 98%
COc1cc(-c2nn(-c3cccc(NC(=O)Nc4ccc(Cl)c(C(F)(F)F)c4)c3)cc2-c2ccncc2)ccc1Cl | 112 | 104 | 93 | 8 | 111 | 101 | -1 | -72 | 95 | -63 | -23 | 87 | -5 | 11 | 95 | 4 | 95 | 89 | -19 | -8 | growth at 0.3 µM (SF-295 [15]): 93%; growth at 30 µM (TK-10): -15%; growth at 30 µM (MDA-MB-468 [6]): -38%; growth at 0.003 µM (SF-295 [16]): 92%; growth at 0.3 µM (HL-60(TB)): 110%; growth at 0.3 µM (IGROV-1 [7]): 109%; growth at 30 µM (UACC-62 [8]): -73%; growth at 0.03 µM (NCI-H322M): 93%; growth at 0.003 µM (UACC-62 [9]): 95%; growth at 30 µM (SF-295 [17]): -70%; growth at 0.03 µM (OVCAR-4): 96%; growth at 0.3 µM (CCRF-CEM [10]): 93%; growth at 3 µM (CCRF-CEM [11]): 3%; growth at 30 µM (A498): -25%; growth at 0.003 µM (LOX IMVI [12]): 97%; growth at 0.3 µM [13]: 89%; growth at 0.003 µM (IGROV-1 [14]): 110%
